Test results: patent US10201523B2, “Use of wilforlide A for overcoming chemotherapy resistance” (WESTERN UNIVERSITY OF HEALTH SCIENCES, priority 2013, dated 2019)
Several values for one entry are separate records, joined by “and”; a condition that tells them apart may be missing. Identical values can stand only once.

Tested on: SkBr3-TxR
Experiment: SRB cell viability assay, lapatinib with/without wilforlide A pretreatment
Format: cell-based
Details: SkBr3-TxR; for A at 565 nm: background = 0.051
[1] = no wilforlide A pre-Tx, lapatinib 0.01 μM 72 h
[2] = no wilforlide A pre-Tx, lapatinib 0.2 μM 72 h
[3] = no wilforlide A pre-Tx, lapatinib 0.67 μM 72 h
[4] = no wilforlide A pre-Tx, lapatinib 2.0 μM 72 h
[5] = no wilforlide A pre-Tx, lapatinib 6.7 μM 72 h
[6] = no wilforlide A pre-Tx, lapatinib 20 μM 72 h
[7] = wilforlide A 2.5 μg/ml pre-Tx, lapatinib 0.01 μM 72 h
[8] = wilforlide A 2.5 μg/ml pre-Tx, lapatinib 0.067 μM 72 h
[9] = wilforlide A 2.5 μg/ml pre-Tx, lapatinib 0.2 μM 72 h
[10] = wilforlide A 2.5 μg/ml pre-Tx, lapatinib 0.67 μM 72 h
[11] = wilforlide A 2.5 μg/ml pre-Tx, lapatinib 2.0 μM 72 h
[12] = wilforlide A 2.5 μg/ml pre-Tx, lapatinib 6.7 μM 72 h

## CS(=O)(=O)CCNCc1ccc(-c2ccc3ncnc(Nc4ccc(OCc5cccc(F)c5)c(Cl)c4)c3c2)o1 [lapatinib]
72 h, no wilforlide A pre-Tx, lapatinib 0.001 μM 72 h
  viability at 0.001 µM: 100%
72 h, no wilforlide A pre-Tx, lapatinib 0.01 μM 72 h
  viability at 0.01 µM: 101%
72 h, no wilforlide A pre-Tx, lapatinib 0.067 μM 72 h
  viability at 0.067 µM: 96.6%
72 h, no wilforlide A pre-Tx, lapatinib 0.2 μM 72 h
  viability at 0.2 µM: 90%
72 h, no wilforlide A pre-Tx, lapatinib 0.67 μM 72 h
  viability at 0.67 µM: 85.6%
72 h, no wilforlide A pre-Tx, lapatinib 2.0 μM 72 h
  viability at 2 µM: 73.5%
72 h, no wilforlide A pre-Tx, lapatinib 6.7 μM 72 h
  viability at 6.7 µM: 61.6%
72 h, no wilforlide A pre-Tx, lapatinib 20 μM 72 h
  viability at 20 µM: 42.6%
72 h, wilforlide A 2.5 μg/ml pre-Tx, lapatinib 0.001 μM 72 h
  viability at 0.001 µM: 100%
72 h, wilforlide A 2.5 μg/ml pre-Tx, lapatinib 0.01 μM 72 h
  viability at 0.01 µM: 89%
72 h, wilforlide A 2.5 μg/ml pre-Tx, lapatinib 0.067 μM 72 h
  viability at 0.067 µM: 77.2%
72 h, wilforlide A 2.5 μg/ml pre-Tx, lapatinib 0.2 μM 72 h
  viability at 0.2 µM: 69.1%
72 h, wilforlide A 2.5 μg/ml pre-Tx, lapatinib 0.67 μM 72 h
  viability at 0.67 µM: 59.5%
72 h, wilforlide A 2.5 μg/ml pre-Tx, lapatinib 6.7 μM 72 h
  viability at 6.7 µM: 40.7%
72 h, wilforlide A 2.5 μg/ml pre-Tx, lapatinib 20 μM 72 h
  viability at 20 µM: 31.1%
No wilforlide A pre-Tx, lapatinib 0.001 μM 72 h
  mean A: 2.302
[1]
  mean A: 2.322
  A at 565 nm: 2.458
No wilforlide A pre-Tx, lapatinib 0.067 μM 72 h
  mean A: 2.222
[2]
  mean A: 2.071
  A at 565 nm: 1.945
[3]
  mean A: 1.970
  A at 565 nm: 1.871 and 1.990 and 2.048
[4]
  mean A: 1.692
  A at 565 nm: 1.609 and 1.759 and 1.708
[5]
  mean A: 1.418
  A at 565 nm: 1.426 and 1.445 and 1.384
[6]
  mean A: 0.980
  A at 565 nm: 0.958 and 1.024 and 0.957
Wilforlide A 2.5 μg/ml pre-Tx, lapatinib 0.001 μM 72 h
  mean A: 2.265
[7]
  mean A: 2.016
  A at 565 nm: 1.817 and 1.976
[8]
  mean A: 1.748
  A at 565 nm: 1.344 and 1.909 and 1.992
[9]
  mean A: 1.564
  A at 565 nm: 1.299 and 1.540 and 1.854
[10]
  mean A: 1.347
  A at 565 nm: 1.127 and 1.398 and 1.517
[11]
  mean A: 1.140
  A at 565 nm: 0.987 and 1.095 and 1.339
[12]
  mean A: 0.922
  A at 565 nm: 0.794 and 0.932 and 1.040
Wilforlide A 2.5 μg/ml pre-Tx, lapatinib 20 μM 72 h
  A at 565 nm: 0.731 and 0.673 and 0.706
Wilforlide A 2.5 μg/ml pre-Tx, read-out: Drug IC50 after wilforlide A pre-Tx
  IC50: 886 nM
Chemosensitization effect, wilforlide A 2.5 μg/ml pre-Tx
  CE: 13
